Data taken from patent publication US20080262080A1, “Allergy Suppressive Agent” (KYUSHU UNIVERSITY, NATIONAL UNIVERSITY CORPORATION, priority 2004, published 2008).

Test system: high-affinity IgE receptor (FcεRI)
Assay: FcεRI expression amount on the cell surface of KU812 cells by flow cytometry
Type: cell-based, human
Settings: 24 hours
Method: By using antihuman FcRI antibody (CRA1), the FcεRI expression amount on the surface of human basophil-like cell line KU812 cells was analyzed by flow cytometry. Cells having been incubated by adding DMSO alone were compared with cells having been incubated by adding chrysin. The ratio of overexpression of FcεRI is indicated in percentage. As a basal medium for incubating cells, use was made of RPMI 1640 (Nissui, Japan), to which 100 U/mL of penicillin (Meiji Pharmaceutical Company, Tokyo, Japan), […] of streptomycin (Meiji Pharmaceutical Company, Tokyo, Japan), 12.5 mM of MaHCO3 (Wako Pure Chemical Industries, Osaka, Japan) and 10 mM of HEPES Wako Pure Chemical Industries) had been added. Fetal bovine serum (FBS) purchased form Bio Source International was added to the basal medium to give a concentration of 5 to 10%. Human basophil-like cell line KU812 employed in this experiment was assigned by Japan Collection of Research Bioresources (JCRB) and subcultured and maintained in RPMI 1640 medium comprising 5 to 10% of FBS at 37° C. in 5% CO2 gas under humidification. KU812 cells were incubated in RPMI 1640 medium, to which chrysin dissolved in DMSO had been added, for 0 to 24 hours. A system wherein the cells were incubated in the medium comprising DMSO alone was used as a control. After incubating, the cells were collected and incubated in 5% FBS-PBS, to which 10 μg/mL of antihuman FcεRI α chain mouse monoclonal antibody CRA-1 (Kyokuto Pharmaceutical) had been added, at 4° C. for 40 to 60 min. As a negative control, 10 μg/mL of mouse control IgG2b antibody (DAKO) was used. Then, the cells were washed with ice-cooled PBS once and incubated in 5% FBS-PBS, to which 10 μg/mL of antimouse IgG2b FITC-labeled antibody (Protos Immunoresearch) had been added, at 4° C. for 40 to 60 min. After incubating, the cells were washed with PBS and then resuspended in PBS. The cell suspension thus obtained was analyzed by flow cytometry. In the flow cytometry analysis, FACS Calibur (Becton Sickinson, Sunnyvale, Calif.) was employed. The secondary antibody reaction and the subsequent procedures were conducted in the dark and the cells were preserved on ice while conducting the analysis. KU812 cells (5×10^5 cells/mL) was incubated in 5% bovine fetal serum comprising RPMI 1640 medium, to which chrysin (0, 1, 5 and 10 μM) and apigenin (purchased from Aldrich Chem. Co., St. Louis, Mo.; 0, 1, 5 and 10 μM) had been added, for 24 hours. After incubating, the FcεRI expression level on the cell surface was measured by flow cytometry (experimental procedure: see [0047]).

O=c1cc(-c2ccc(O)cc2)oc2cc(O)cc(O)c12 [Apigenin]
FcεRI expression suppressive rate (%) (single agent 1 μM): 5.0%
FcεRI expression suppressive rate (%) (single agent 5 μM): 17.1%
FcεRI expression suppressive rate (%) (single agent 10 μM): 36.1%
